In the supplement of paper PMC10307832:

Assays:
AZD6482 + Tozasertib = compound: Cc1cc([C@@H](C)Nc2ccccc2C(=O)O)c2nc(N3CCOCC3)cc(=O)n2c1 [AZD6482] + Cc1cc(Nc2cc(N3CCN(C)CC3)nc(Sc3ccc(NC(=O)C4CC4)cc3)n2)n[nH]1 [Tozasertib] (partner 0.1 µM); assay: relative viability (nuclei count vs DMSO), 5 days (fraction); higher = more cells survive
Summary of the method: (§1)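 Relative viability was taken as the ratio of nuclei in treated wells to nuclei in vehicle wells. Lung cancer cell lines in 1536-well plates received compounds by pin tool one day after seeding, either one drug alone or a fixed anchor-drug dose plus five library-drug doses (not always all listed) in √10 steps. Nuclei were counted on 4× images after 5 days of treatment, and values are medians of duplicate plates.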

[1] = compound: COc1cc2nc(N3CCCN(C)CC3)nc(NC3CCN(Cc4ccccc4)CC3)c2cc1OC + COc1cc2c(Oc3ccc(NC(=O)C4(C(=O)Nc5ccc(F)cc5)CC4)cc3F)ccnc2cc1OCCCN1CCOCC1 [Foretinib] (partner 0.25 µM); assay: as above
Summary of the method: as §1

Row | Cell Line | relative viability (AZD6482 + Tozasertib; first compound 0.08 µM) | relative viability (AZD6482 + Tozasertib; first compound 0.253 µM) | relative viability (AZD6482 + Tozasertib; first compound 0.8 µM) | relative viability (AZD6482 + Tozasertib; first compound 2.53 µM) | relative viability (AZD6482 + Tozasertib; first compound 8 µM) | relative viability ([1]; first compound 0.2 µM) | relative viability ([1]; first compound 0.6325 µM) | relative viability ([1]; first compound 2 µM) | relative viability ([1]; first compound 6.325 µM)
1 | NCI-H1975 | 0.624 | 0.717 | 0.701 | 0.629 | 0.463 | 0.972 | 0.97 | 1 | 0.955
2 | CAL-12T | 0.303 | 0.338 | 0.37 | 0.228 | 0.218 | 1.01 | 1.15 | 1.38 | 0.941
3 | NCI-H1623 | 0.384 | 0.382 | 0.397 | 0.419 | 0.371 | 0.903 | 0.94 | 0.848 | 0.768
4 | HCC-44 | 0.945 | 0.895 | 0.88 | 0.957 | 0.829 |  |  |  | 
5 | EKVX | 0.337 | 0.296 | 0.344 | 0.362 | 0.202 | 0.754 | 0.814 | 0.986 | 0.794
6 | NCI-H1651 | 0.68 | 0.647 | 0.598 | 0.565 | 0.592 | 0.85 | 0.688 | 0.934 | 0.807
7 | NCI-H1944 | 0.238 | 0.242 | 0.217 | 0.206 | 0.189 | 0.882 | 0.867 | 0.862 | 0.807
8 | NCI-H1703 |  |  |  |  |  | 0.313 | 0.317 | 0.412 | 0.448
9 | Calu-6 |  |  |  |  |  | 0.867 | 0.865 | 0.983 | 0.903
10 | EBC-1 |  |  |  |  |  | 0.1 | 0.117 | 0.114 | 0.107
11 | SW 1573 | 0.158 | 0.17 | 0.184 | 0.123 | 0.143 | 0.844 | 0.974 | 0.941 | 0.862
12 | A-427 | 0.219 | 0.214 | 0.188 |  | 0.209 | 0.918 | 0.977 | 1.13 | 1.09
13 | NCI-H2347 | 0.321 | 0.388 | 0.364 | 0.357 | 0.371 | 0.791 | 0.834 | 1.02 | 1
14 | NCI-H1355 | 0.462 | 0.419 | 0.43 | 0.435 | 0.441 | 0.973 | 0.968 | 1.05 | 0.919
15 | NCI-H358 | 0.0814 | 0.107 | 0.104 | 0.0733 | 0.0946 | 0.701 | 0.824 | 0.81 | 0.566
16 | PC-3 [JPC-3] | 0.785 | 0.793 | 0.892 | 0.78 | 0.823 | 1.03 | 1.03 | 1.14 | 0.992
17 | NCI-H2228 |  | 0.257 | 0.235 | 0.287 | 0.155 | 1.02 | 0.711 | 0.729 | 0.499
18 | HOP-62 | 0.374 | 0.382 | 0.311 | 0.363 | 0.332 | 1.06 | 1.09 | 1.1 | 1.15
19 | HARA | 0.212 | 0.108 | 0.0865 | 0.111 | 0.0791 | 0.973 | 0.9 | 0.92 | 0.92
20 | NCI-H838 | 0.264 | 0.266 | 0.243 | 0.192 | 0.222 | 1.08 | 1.17 | 1.06 | 1.03

Row | Cell Line | relative viability (AZD6482 + Tozasertib; first compound 0.08 µM) | relative viability (AZD6482 + Tozasertib; first compound 0.253 µM) | relative viability (AZD6482 + Tozasertib; first compound 0.8 µM) | relative viability (AZD6482 + Tozasertib; first compound 2.53 µM) | relative viability (AZD6482 + Tozasertib; first compound 8 µM) | relative viability ([1]; first compound 0.2 µM) | relative viability ([1]; first compound 0.6325 µM) | relative viability ([1]; first compound 2 µM) | relative viability ([1]; first compound 6.325 µM)
21 | NCI-H1755 | 0.608 | 0.537 | 0.688 | 0.478 | 0.519 | 0.9 | 0.899 | 0.922 | 0.815
22 | HCC-78 | 0.327 | 0.335 | 0.271 | 0.317 | 0.227 | 0.57 | 0.578 | 0.58 | 0.533
23 | IA-LM |  |  |  |  |  | 1.13 | 0.807 | 1.34 | 1.16
24 | NCI-H322M | 0.442 | 0.461 | 0.453 | 0.319 | 0.384 | 0.899 | 0.94 | 1.05 | 0.923
25 | NCI-H3122 | 0.355 | 0.348 | 0.344 |  | 0.351 | 0.915 | 1.02 | 0.955 | 0.968
26 | COR-L23 | 0.183 | 0.192 | 0.162 | 0.153 | 0.171 | 1.02 | 0.95 | 0.965 | 0.996
27 | NCI-H2087 | 0.282 | 0.268 | 0.221 |  | 0.205 | 1.12 | 0.99 | 1.31 | 1.25
28 | LC-2-ad | 0.392 | 0.428 | 0.452 | 0.5 | 0.379 | 0.813 | 0.938 | 0.956 | 0.974
29 | NCI-H1915 | 0.453 | 0.346 | 0.417 | 0.426 | 0.371 | 1.05 | 1.01 | 1.1 | 1.12
30 | NCI-H1793 | 0.256 | 0.189 | 0.219 | 0.226 | 0.15 | 0.591 | 0.882 | 0.848 | 0.701
31 | NCI-H2023 | 0.367 | 0.336 | 0.286 | 0.289 | 0.279 | 0.943 | 0.834 | 0.834 | 0.455
32 | COR-L 105 | 0.362 | 0.348 | 0.352 | 0.336 | 0.344 | 1.06 | 1.27 | 1.13 | 0.921
33 | RERF-LC-KJ | 0.447 | 0.513 | 0.49 | 0.465 | 0.388 | 0.905 | 0.927 | 0.904 | 0.857
34 | LXF-289 | 0.178 | 0.135 | 0.171 | 0.207 | 0.122 | 0.936 | 0.993 | 0.984 | 1
35 | PC-14 | 0.556 | 0.61 | 0.619 | 0.613 | 0.524 | 1.01 | 0.959 | 0.939 | 0.885
36 | NCI-H650 | 0.722 |  | 0.751 | 0.588 | 0.443 | 1.06 | 0.948 | 1.12 | 0.965
37 | NCI-H1666 | 0.544 | 0.701 | 0.592 | 0.554 | 0.648 | 0.897 | 0.969 | 1.13 | 0.932
38 | NCI-H2085 | 0.656 | 0.539 | 0.407 | 0.393 | 0.351 | 0.917 | 0.926 | 0.965 | 0.944
39 | NCI-H1734 | 0.287 | 0.263 | 0.269 | 0.217 | 0.24 | 0.934 | 0.846 | 0.849 | 0.91
